{"source": "patent US8921414B2", "about": "“Spiroketals” (EcoBiotics Ltd, priority 2005, dated 2014)", "key": {"Haemonchus contortus": {"tested_on": "Haemonchus contortus", "assay": "NemaTOX (Ne) anthelmintic larval development bioassay", "details": "for Ne LD99: weight of chemical in last well with activity, real value may be lower", "protocol": "NemaTOX (alternatively referred to herein as Ne) is an anthelmintic bioassay, applicable to all parasitic nematodes with free-living life cycle stages, and can be used as a screen to detect activity and define the species spectrum of compounds against parasitic nematodes and examine the impact of pre-existing resistance to other anthelmintic classes on potency. Haemonchus contortus was utilised for this assay.\nThe effect on larval development is determined in this assay by the method described by Gill et al. (1995) Int. J. Parasitol. 25: 463-470. Briefly, in this assay nematode eggs were applied to the surface of an agar matrix containing the test sample and allowed to develop through to the L3, infective stage (6 days). At this time the stage of larval development reached and any unusual features (deformity, paralysis, toxicity) were noted by microscopic examination."}, "Bacillus subtilis": {"tested_on": "Bacillus subtilis", "assay": "ProTOX (Bs) antibacterial bioassay", "format": "cell-based", "details": "for Bs LD99: weight of chemical in last well with activity, real value may be lower", "text": "ProTOX, (alternatively referred to herein as Bs) is an antibacterial bioassay, broadly applicable to most aerobic and anaerobic bacteria. The bioassay features a solid phase agar base into which the test compound has been incorporated together with a chromogen. As the bacteria multiply in the well, the chromogen is metabolised from blue in a two-step process to a colourless compound. Compounds with potent bactericidal activity inhibit bacterial metabolism of the chromogen while bacteriostatic compounds induce limited metabolism as indicated by an intermediate pink colour. ProTOX is broadly applicable to a range of gram-positive and gram-negative bacteria under aerobic and microaerophilic conditions. ProTOX assays were carried out using Bacillus subtilis. Briefly, in ProTOX, the bacteria (24 hour broth) were applied to the surface of an agar matrix containing the test sample and allowed to grow for 48 h. The assay was monitored at 24 and 48 hours and the active wells noted. Known antibiotics yield consistent colour transitions which are concentration and time dependent. These patterns provided an important guide to the early recognition of interesting characteristics."}, "[1]": {"tested_on": "NS1 murine myeloma cell line", "assay": "CyTOX (Cy) cytotoxicity bioassay", "format": "cell-based", "details": "for Cy LD99: weight of chemical in last well with activity, real value may be lower", "text": "CyTOX (alternatively referred to herein as Cy) is a microtitre plate bioassay use to identify potential antitumor actives. CyTOX is a chromogenic bioassay with broad application to a wide range of tumor and non-tumor cell lines. […] CyTOX features a liquid media into which the test compound has been incorporated together with a novel chromogen. As the cells grow and divide the chromogen is metabolised from purple in a single step process to a colourless metabolite. CyTOX is routinely undertaken using NS1 murine myeloma cell line as a guide to mammalian cell toxicity. Briefly, in CyTOX the cells were applied to the media containing the test chemical and allowed to grow for 72 hours. The assay was monitored at 24, 48 and 72 hours and the active wells identified."}, "Giardia spp.": {"tested_on": "Giardia spp.", "assay": "TriTOX (Gi) anti-protozoan bioassay", "format": "cell-based", "details": "for Gi LD99: weight of chemical in last well with activity, real value may be lower", "text": "TriTOX (alternatively referred to herein as Gi) is a microtitre plate based chromogenic bioassay for the screening of anti-protozoan activity of pathogenic, anaerobic/microaerophilic protozoans for example Giardia spp. and Trichomonas spp. The bioassays are run under anaerobic conditions and features species specific chromogens. […] Aliquots of each concentration(s) are applied to the wells of 96-well microtitre plates and diluted with media. […] The lowest concentration at which the compound is active is noted as the minimum inhibitory concentration (MIC). Additionally, microscopic inspection is carried out to identify any patterns of morphological change that may be consistent with a type of toxicity and therefore mode of action. Giardia spp. was utilized for this assay."}, "leukemia K562": {"tested_on": "leukemia K562", "assay": "Additional in vitro activity: antitumor activity, K562", "format": "cell-based, human", "details": "concentration with activity"}, "melanoma MM418c5": {"tested_on": "melanoma MM418c5", "assay": "Additional in vitro activity: antitumor activity, MM418c5", "format": "cell-based, human", "details": "concentration with activity"}, "prostate DU145": {"tested_on": "prostate DU145", "assay": "Additional in vitro activity: antitumor activity, DU145", "format": "cell-based, human", "details": "concentration with activity"}, "[2]": {"tested_on": "Neonatal foreskin fibroblasts (NFF)", "assay": "Cell growth inhibition (Table 22), NFF", "format": "cell-based", "details": "Homo sapiens, read-out: IC50 (drug dose which inhibits cell growth by 50%) NFF", "protocol": "(§1) The isolated compounds were tested against a number of human and non-human cancer cell lines. The human tumor cell lines were: MCF-7, MDA-MB-231 and T47D, breast cancer; DU145 and PC3, prostate cancer; CI80-13S, ovarian cancer; MM96L, D04, SkMel5, MM418c5 melanoma; HT29, colon cancer; K562 and HL60, leukemia. Mouse cell lines were the B16 mouse melanoma and LK2 UV-induced squamous cell carcinoma (SCC). Neonatal foreskin fibroblasts (NFF) were used as normal control cells. Cells were cultured at 37° C. in 5% carbon dioxide/air, in RPMI 1640 medium containing 10% fetal calf serum."}, "MCF-7 breast cancer": {"tested_on": "MCF-7 breast cancer", "assay": "Cell growth inhibition (Table 22), MCF7", "format": "cell-based", "details": "Homo sapiens, read-out: IC50 (drug dose which inhibits cell growth by 50%) MCF7", "protocol": "as §1"}, "DU145 prostate cancer": {"tested_on": "DU145 prostate cancer", "assay": "Cell growth inhibition (Table 22), DU145", "format": "cell-based", "details": "Homo sapiens, DU-145; read-out: IC50 (drug dose which inhibits cell growth by 50%) DU145", "protocol": "as §1"}, "CI80-13S ovarian cancer": {"tested_on": "CI80-13S ovarian cancer", "assay": "Cell growth inhibition (Table 22), C180-13S", "format": "cell-based", "details": "Homo sapiens, read-out: IC50 (drug dose which inhibits cell growth by 50%) C180-13S", "protocol": "as §1"}, "[3]": {"tested_on": "EBV-infected peripheral blood mononuclear cells (PBMCs)", "assay": "EBV transformation of donor PBMCs (anti-inflammatory screening)", "format": "cell-based, human", "details": "2 μg/mL, 28 days, visual and 3H-T cpm", "protocol": "Three main assays were performed; transformation, regression and mixed lymphocyte reactions (MLRs). Reference is made to Moss et al., (D J, Rickinson A B, Pope J H: Long-term T-cell-mediated immunity to Epstein-Barr virus in man. III. Activation of cytotoxic T cells in virus-infected leukocyte cultures. Int J Cancer 1979, 23:618-625). Complete regression of virus-induced transformation in cultures of seropositive donor leukocytes\nBoth regression and MLR quantitative experimental results were obtained visually and by the addition of [methyl-^3H]thymidine (3H-T). 3H-T is a nucleoside analogue and is incorporated into the DNA of proliferating cells. If cells are proliferating, the counts/minute (cpm) is high; if cells are dead, the cpm is low.\nEBV seronegative and seropositive donors' peripheral blood mononuclear cells (PBMCs) were infected with EBV. […]\nThe cells were then incubated for 28 days when results were determined visually and by the addition of 3H-T to obtain quantitative data.\nThe individual transformation summaries were determined by visual data and 3H-T cpm data from EBV seronegative_donors' peripheral blood mononuclear cells (PBMC). […] The 3H-T cpm cut-off values were determined for each individual assay by this control value, plus and minus a five (5)-fold difference. […]"}}, "data": [{"smiles": "CC/C=C/CCCCCCCCCCCC(O)CC1CC(O)CC2(CC3OC(=O)C=CC3O2)O1", "note": "(stereo not shown) [EBI-24]", "values": [{"measurement": "Ne LD99", "setting": "Haemonchus contortus; listed as EB116.LA3.31-36/40", "value": 100, "unit": "µg/mL"}, {"measurement": "Ne LD99", "setting": "Haemonchus contortus; listed as EB116.LA3.60-47/49", "value": 50, "unit": "µg/mL"}, {"measurement": "Bs LD99", "setting": "Bacillus subtilis", "value": 13, "unit": "µg/mL"}, {"measurement": "Cy LD99", "setting": "[1]", "value": 0.78, "unit": "µg/mL"}, {"measurement": "Gi LD99", "setting": "Giardia spp.; listed as EB116.LA3.31-36/40", "value": 100, "unit": "µg/mL"}, {"measurement": "Gi LD99", "setting": "Giardia spp.; listed as EB116.LA3.60-47/49", "value": 50, "unit": "µg/mL"}, {"measurement": "antitumor activity against leukemia K562 at", "setting": "leukemia K562", "value": 10, "unit": "µg/mL"}, {"measurement": "antitumor activity against melanoma MM418c5 at", "setting": "melanoma MM418c5", "value": 10, "unit": "µg/mL"}, {"measurement": "antitumor activity against prostate DU145 at", "setting": "prostate DU145", "value": 10, "unit": "µg/mL"}, {"measurement": "IC50", "setting": "[2]", "value": 0.8, "unit": "µg/mL"}, {"measurement": "IC50", "setting": "MCF-7 breast cancer", "value": 0.2, "unit": "µg/mL"}, {"measurement": "IC50", "setting": "DU145 prostate cancer", "value": 0.7, "unit": "µg/mL"}, {"measurement": "IC50", "setting": "CI80-13S ovarian cancer", "value": 0.75, "unit": "µg/mL"}, {"measurement": "inhibition of transformation", "setting": "[3]", "value": "strong inhibition"}]}, {"smiles": "CCCCCCCCCCCCCC(O)CC1CC(O)CC2(CC3OC(=O)C=CC3O2)O1", "note": "(stereo not shown) [EBI-23]", "values": [{"measurement": "Ne Titre", "setting": "Haemonchus contortus", "value": 1}, {"measurement": "Ne LD99", "setting": "Haemonchus contortus; listed as EB77.LA4.92-100", "value": 63, "unit": "µg/mL"}, {"measurement": "Ne LD99", "setting": "Haemonchus contortus; listed as EB116.LA3.31-27/32", "value": 100, "unit": "µg/mL"}, {"measurement": "Bs Titre", "setting": "Bacillus subtilis", "value": 16}, {"measurement": "Bs LD99", "setting": "Bacillus subtilis; listed as EB77.LA4.92-100", "value": 3.9, "unit": "µg/mL"}, {"measurement": "Bs LD99", "setting": "Bacillus subtilis; listed as EB116.LA3.31-27/32", "value": 3.1, "unit": "µg/mL"}, {"measurement": "Bs LD99", "setting": "Bacillus subtilis; listed as EB116.LA3.60-40/42", "value": 6.3, "unit": "µg/mL"}, {"measurement": "Cy Titre", "setting": "[1]", "value": 256}, {"measurement": "Cy LD99", "setting": "[1]; listed as EB77.LA4.92-100", "value": 0.24, "unit": "µg/mL"}, {"measurement": "Cy LD99", "setting": "[1]; listed as EB116.LA3.31-27/32", "value": 0.78, "unit": "µg/mL"}, {"measurement": "Cy LD99", "setting": "[1]; listed as EB116.LA3.60-40/42", "value": 0.78, "unit": "µg/mL"}, {"measurement": "Gi Titre", "setting": "Giardia spp.", "value": 4}, {"measurement": "Gi LD99", "setting": "Giardia spp.; listed as EB77.LA4.92-100", "value": 16, "unit": "µg/mL"}, {"measurement": "Gi LD99", "setting": "Giardia spp.; listed as EB116.LA3.31-27/32", "value": 50, "unit": "µg/mL"}, {"measurement": "Gi LD99", "setting": "Giardia spp.; listed as EB116.LA3.60-40/42", "value": 50, "unit": "µg/mL"}, {"measurement": "antitumor activity against leukemia K562 at", "setting": "leukemia K562", "value": 3, "unit": "µg/mL"}, {"measurement": "antitumor activity against melanoma MM418c5 at", "setting": "melanoma MM418c5", "value": 1, "unit": "µg/mL"}, {"measurement": "antitumor activity against prostate DU145 at", "setting": "prostate DU145", "value": 3, "unit": "µg/mL"}, {"measurement": "IC50", "setting": "[2]", "value": 2, "unit": "µg/mL"}, {"measurement": "IC50", "setting": "MCF-7 breast cancer", "value": 0.5, "unit": "µg/mL"}, {"measurement": "IC50", "setting": "DU145 prostate cancer", "value": 0.7, "unit": "µg/mL"}, {"measurement": "IC50", "setting": "CI80-13S ovarian cancer", "value": 0.2, "unit": "µg/mL"}, {"measurement": "inhibition of transformation", "setting": "[3]", "value": "strong inhibition"}]}]}
